The nature of series [1]: Drug uptake in human HepG2 cells at 10 uM measured after 1 hr by fluorescence analysis. In kind it is ADME, cell-based. Conditions: hepg2, 1 h; call rule not given here.
Series [2] can be described thus: Drug uptake in human HepG2 cells assessed as mean fluorescence intensity at 10 uM measured after 1 hr by flow cytometry analysis (reference value: 2.74). It is filed as ADME, cell-based. Conditions: hepg2, 1 h. On the technique in general: In flow cytometry, cells or beads pass a laser one at a time.
The nature of series [3]: Solubility of the compound in water. In kind it is physicochemical. Conditions: buffer.
In series [4] the test system is HepG2. The series can be described thus: Potency index, ratio of compound uptake to irinotecan uptake in human HepG2 cells at 10 uM measured after 24 hrs by microplate reader analysis. It is filed as ADME, cell-based. The note with it: hepg2, 24 h.
Series [5] can be described thus: Drug metabolism in human HepG2 cells assessed as SN38 release at 10 uM measured after 24 hrs by microplate reader analysis. In kind it is ADME, cell-based. The note with it: hepg2, 24 h.
A short description of series [6]: Drug uptake in human A549 cells at 10 uM measured after 24 hrs by confocal laser scanning microscopic analysis. Conditions: a549, 24 h. In kind it is ADME, cell-based.
For series [7], the system named is HepG2. In words: Antiproliferative activity against human HepG2 cells assessed as inhibition of cell proliferation after 72 hrs by MTT assay. In kind it is functional, cell-based. The note with it: HepG2, 72 h. In general terms: Formazan colour is commonly taken as a measure of viable cells.
Series [8] in a line: Drug uptake in human HepG2 cells at 10 uM measured after 24 hrs by confocal laser scanning microscopic analysis. It is filed as ADME, cell-based. Conditions: hepg2, 24 h.

The structures appear in SMILES notation.

Regarding `CCN(CCn1cc(COCCOCCOCCOCCNC(=O)c2ccc(B(O)O)cc2)nn1)c1ccc(/C=C/C2=CC(=C(C#N)C#N)c3ccccc3O2)cc1`, the Drug uptake result in series [1] is given as “Active”. Besides, in series [2], the Flu intensity turned out to be 99.42.
The corresponding values for `CCN(CCn1cc(COCCOCCOCCOCCNC(=O)Nc2ccc3c(c2)B(O)OC3)nn1)c1ccc(/C=C/C2=CC(=C(C#N)C#N)c3ccccc3O2)cc1` are “Active” and 86.91.
With `CCN(CCn1cc(COCCOCCOCCOCCNC(=O)c2cccc([N+](=O)[O-])c2)nn1)c1ccc(/C=C/C2=CC(=C(C#N)C#N)c3ccccc3O2)cc1`, the Drug uptake entry in series [1] is recorded as “Active”. Moreover, in series [3], the solubility result is “Soluble”. In series [2], the Flu intensity stood at 28.12.
On to `CCc1c2c(nc3ccc(OC(=O)N4CCC(CNC(=O)Nc5ccc6c(c5)B(O)OC6)CC4)cc13)-c1cc3c(c(=O)n1C2)COC(=O)[C@]3(O)CC`, for which, in series [4], the Ratio stood at 3. Also, the Drug metabolism result in series [5] is given as “Metabolite_Notdetected”. The Drug uptake entry in series [6] and in series [8] was “Active” in each case. In series [7], the IC50 amounted to 840 nM.
As for `CCc1c2c(nc3ccc(OC(=O)N4CCC(CNC(=O)c5ccc(B(O)O)cc5)CC4)cc13)-c1cc3c(c(=O)n1C2)COC(=O)[C@]3(O)CC`, in series [4], the Ratio came to 7. In addition, the Drug metabolism result in series [5] was “Metabolite_Notdetected”. Further, the Drug uptake result in series [6] and in series [8] was “Active” each time. Besides, in series [7], the IC50 was found to be 1590 nM.
Turning to `CCN(CCn1cc(COCCOCCOCCOCCO)nn1)c1ccc(/C=C/C2=CC(=C(C#N)C#N)c3ccccc3O2)cc1`, the Drug uptake entry in series [1] was “Active”. Moreover, the solubility entry in series [3] is reported as “Soluble”. Besides, the Flu intensity in series [2] was determined as 64.89.
In the case of `CCN(CCn1cc(COCCOCCOCCOCCNC(=O)c2cc(B(O)O)cc([N+](=O)[O-])c2)nn1)c1ccc(/C=C/C2=CC(=C(C#N)C#N)c3ccccc3O2)cc1`, the Drug uptake result in series [1] is “Active”. Besides, in series [2], the Flu intensity was determined as 11.83.
Regarding `CCc1c2c(nc3ccc(OC(=O)N4CCC(N5CCCCC5)CC4)cc13)-c1cc3c(c(=O)n1C2)COC(=O)[C@]3(O)CC`, the IC50 in series [7] came out at 950 nM.

For orientation: IC50 means the concentration that inhibits the measured activity by half.

(Values after ChEMBL document CHEMBL4627296, “Enhanced cellular uptake efficiency of DCM probes or SN38 conjugating with phenylboronic acids” (Bioorg Med Chem, 2020).)
